Results taken from US7994140B2, “Classes of compounds that interact with GPCRs” (Alchemia Limited, priority 2002, dated 2011).

Experiments:
SST5 = biological target: T1, SST5 (Homo sapiens, UniProt P35346); assay: GPCR radioligand binding (RLB) assay, somatostatin SST5, [125I]SST-14; details: for SST5 inhibition at 10 micromolar: 10 micromolar compound, recombinant human receptor membranes (HEK 293)
T1 construct: purchased Perkin Elmer BioSignal; host or cells: HEK 293
Description: Recombinant human receptors expressed in HEK 293 cells were used for all experiments. Receptor membrane preparations were purchased from Perkin Elmer BioSignal. The labelled ligand used in somatostatin GPCR RLB assays was [^125I]SST-14 and in melanocortin assays was [^125I]NDP-αMSH. All assays were done in a 96-well plate format using either glass fiber filter mats or filter plates. All reagents purchased were of the highest quality.
Specific assay buffer, incubation and washing conditions were optimized for each receptor however they all followed the same general format. The procedures for both filter mat and filter plate formats are based on the receptor manufacturers recommendations or those described extensively in the literature. The procedures are briefly outlined below.
In assays where filter mats are used we incubate receptor membranes, assay buffer and [^125I] labelled ligand in 96 well microplates. Add compounds to incubation mixture and continue incubation for optimized period. Presoak Filter mat GF/B in 0.5% PEI for ˜2 hr at 4° C. On completion of assay mixture incubation add additional 100 μL/well of assay buffer immediately prior to filtration. Filter the assay mixture onto the GF/B filter mat using a cell harvester. Dry the filter mats prior to sealing them into a scintillation counting bag with scintillant. Radioactivity in each well is detected by liquid scintillation counting.
In assays where filter plates are used Multiscreen glass fiber filter plates (Millipore, Cat No MAFCNOB10) are precoated with 0.5% PEI for ˜2 hr at 4° C. All wells are then washed with 200 µl/well assay buffer and filtered using the Multiscreen Separation System. Subsequently receptor membranes, assay buffer and labelled ligands are added to the wells and equilibrated. Compounds for testing are then added to the mixture and incubation is continued for an optimized time. Plates are then put into the Multiscreen Separation System and the assay mixture is filtered through the plate under vacuum. Each well is then washed several times with assay buffer. Plates are then dried prior to putting sealing tape onto the bottom of the plate. Scintillant is added to each well and radioactivity measured by liquid scintillation counting.
Raw data was analysed according to standard methods using either GraphPad Prism software or IDDBS ActivityBase software.

MC4 = biological target: T2, MC4 (Homo sapiens, UniProt P32245); assay: GPCR radioligand binding (RLB) assay, melanocortin MC4, [125I]NDP-αMSH; details: for MC4 Inhibition at 1.0 Micromolar: 1.0 micromolar compound
T2 construct: purchased Perkin Elmer BioSignal; host or cells: HEK 293
T2 sequence (P32245 whole entry): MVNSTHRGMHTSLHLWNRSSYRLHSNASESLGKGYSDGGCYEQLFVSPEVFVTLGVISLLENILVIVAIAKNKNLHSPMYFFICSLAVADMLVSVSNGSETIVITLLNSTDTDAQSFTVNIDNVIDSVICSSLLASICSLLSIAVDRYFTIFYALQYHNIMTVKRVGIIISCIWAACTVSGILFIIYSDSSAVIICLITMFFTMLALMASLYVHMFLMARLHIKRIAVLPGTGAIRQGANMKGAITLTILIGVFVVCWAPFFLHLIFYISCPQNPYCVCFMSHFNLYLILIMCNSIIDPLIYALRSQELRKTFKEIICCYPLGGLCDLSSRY
In short: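 Competition binding against radioligand ([125I]NDP-αMSH for MC4, [125I]SST-14 for SST5) on membranes of HEK 293 cells carrying the human receptor; buffer and incubation time optimized per receptor. Filtration through 0.5% PEI-treated glass fiber, washing, then scintillation counting.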

[1] = 10 micromolar, Example Library 4
[2] = 10 micromolar compound, recombinant human receptor membranes (HEK 293)

T1 sequence (P35346 whole entry): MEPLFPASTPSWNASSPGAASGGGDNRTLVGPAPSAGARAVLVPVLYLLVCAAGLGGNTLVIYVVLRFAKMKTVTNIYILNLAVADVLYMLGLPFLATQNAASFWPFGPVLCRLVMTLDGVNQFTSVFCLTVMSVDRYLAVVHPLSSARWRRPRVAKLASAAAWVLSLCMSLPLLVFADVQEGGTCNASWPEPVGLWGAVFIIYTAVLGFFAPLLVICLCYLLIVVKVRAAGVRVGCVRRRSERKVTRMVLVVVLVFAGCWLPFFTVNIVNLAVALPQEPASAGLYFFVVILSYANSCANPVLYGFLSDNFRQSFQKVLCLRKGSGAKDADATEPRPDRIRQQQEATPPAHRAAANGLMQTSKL

SMILES: COCC1OC(OCc2ccc3ccccc3c2)C(NC(=O)CN)C(OCc2ccc(Cl)cc2)C1O (stereo not drawn) [Compound 290]
- SSTS inhibition at 10 micromolar (SST5; [1]): + (Indicates inhibition greater than . . . 50%)

SMILES: COC[C@H]1OC(OCc2ccc(-c3ccccc3)cc2)[C@H](NC(=O)CCCN)[C@@H](OCc2cccc(O)c2)[C@@H]1O (stereo partly drawn) [Compound 22]
- SST5 inhibition at 10 micromolar (SST5): + (Indicates inhibition greater than . . . 50%)

SMILES: COC[C@H]1OC(OCc2ccccc2)[C@H](NC(=O)CCNC(=N)N)[C@@H](OCc2ccc(Cl)cc2)[C@@H]1O (stereo partly drawn) [Compound 10]
- SST5 inhibition at 10 micromolar (SST5): + (Indicates inhibition greater than . . . 50%)

SMILES: N=C(N)NCCC(=O)NC1C(OCc2ccc(Cl)cc2)OC(COCc2ccc(Cl)cc2)C(O)C1OCc1ccc(-c2ccccc2)cc1 (stereo not drawn) [Compound 496]
- MC4 Inhibition at 4.0 Micromolar (MC4; Example Library 13): + (Indicates inhibition greater than . . . 50%)

SMILES: N=C(N)NCC(=O)N[C@H]1C(OCc2ccc(-c3ccccc3)cc2)O[C@H](COCc2ccc(Cl)cc2)[C@@H](O)[C@H]1OCc1ccc(Cl)cc1 (stereo partly drawn) [Compound 465]
- MC4 Inhibition at 4.0 Micromolar (MC4; Example Library 13): + (Indicates inhibition greater than . . . 50%)

SMILES: N=C(N)NCC(=O)N[C@H]1C(OCc2ccccc2)O[C@H](COCc2ccccc2)[C@@H](O)[C@@H]1OCc1ccc(Cl)cc1 (stereo partly drawn) [Compound 434]
- MC4 Inhibition at 4.0 Micromolar (MC4; Example Library 12): + (Indicates inhibition greater than . . . 50%)

SMILES: N=C(N)NCC(=O)N[C@H]1C(OCc2ccccc2)O[C@H](COCc2ccc3ccccc3c2)[C@@H](O)[C@@H]1OCc1ccc2ccccc2c1 (stereo partly drawn) [Compound 436]
- MC4 Inhibition at 4.0 Micromolar (MC4; Example Library 12): + (Indicates inhibition greater than . . . 50%)

SMILES: CO[C@H]1[C@H](O)[C@@H](COCc2ccc3ccccc3c2)OC(OCc2cccc(O)c2)[C@@H]1NC(=O)CCCNC(=N)N (stereo partly drawn) [Compound 115]
- MC4 inhibition at 10 micromolar (MC4; [2]): + (Indicates inhibition greater than . . . 50%)

SMILES: NCC(=O)NC1O[C@H](CO)[C@@H](O)[C@H](OCc2ccc(Cl)cc2)[C@H]1NC(=O)c1ccccc1 (stereo partly drawn) [Compound 507]
- MC4 Inhibition at 1.0 Micromolar (MC4): + (Indicates inhibition greater than . . . 50%)

SMILES: N=C(N)NCCC(=O)N[C@H]1C(OCc2ccc(-c3ccccc3)cc2)O[C@H](COCc2ccccc2)[C@@H](O)[C@H]1OCc1ccc(-c2ccccc2)cc1 (stereo partly drawn) [Compound 477]
- MC4 Inhibition at 4.0 Micromolar (MC4; Example Library 13): + (Indicates inhibition greater than . . . 50%)

SMILES: COC1C(O)C(COCc2ccc(-c3ccccc3)cc2)OC(OCc2ccc(Cl)cc2)C1NC(=O)CNC(=N)N (stereo not drawn) [Compound 83]
- MC4 inhibition at 10 micromolar (MC4; [2]): + (Indicates inhibition greater than . . . 50%)

SMILES: N=C(N)NCCC(=O)N[C@H]1C(OCc2ccccc2)O[C@H](COCc2ccc3ccccc3c2)[C@@H](O)[C@@H]1OCc1ccc(Cl)cc1 (stereo partly drawn) [Compound 447]
- MC4 Inhibition at 4.0 Micromolar (MC4; Example Library 12): + (Indicates inhibition greater than . . . 50%)

SMILES: NCCC(=O)NC1C(OCc2ccc3ccccc3c2)OC(COCc2ccc3ccccc3c2)C(O)C1OCc1ccc2ccccc2c1 (stereo not drawn) [Compound 416]
- MC4 Inhibition at 4.0 Micromolar (MC4; Example Library 11): + (Indicates inhibition greater than . . . 50%)

SMILES: COC1C(O)C(COCc2ccc(Cl)cc2)OC(OCc2ccc3ccccc3c2)C1NC(=O)CNC(=N)N (stereo not drawn) [Compound 75]
- MC4 inhibition at 10 micromolar (MC4; [2]): + (Indicates inhibition greater than . . . 50%)

SMILES: N=C(N)NCC(=O)NC1C(OCc2ccc(Cl)cc2)OC(COCc2ccc3ccccc3c2)C(O)C1OCc1ccc(-c2ccccc2)cc1 (stereo not drawn) [Compound 485]
- MC4 Inhibition at 4.0 Micromolar (MC4; Example Library 13): + (Indicates inhibition greater than . . . 50%)

SMILES: N=C(N)NCCC(=O)N[C@H]1C(OCc2ccccc2)O[C@H](COCc2ccc(Cl)cc2)[C@@H](O)[C@@H]1OCc1ccc2ccccc2c1 (stereo partly drawn) [Compound 455]
- MC4 Inhibition at 4.0 Micromolar (MC4; Example Library 12): + (Indicates inhibition greater than . . . 50%)

SMILES: NCC(=O)NC1O[C@H](CO)[C@@H](O)[C@H](OCc2ccccc2)[C@H]1NC(=O)c1ccccc1 (stereo partly drawn) [Compound 506]
- MC4 Inhibition at 1.0 Micromolar (MC4): + (Indicates inhibition greater than . . . 50%)

SMILES: NCCCC(=O)N[C@H]1C(OCc2ccc3ccccc3c2)O[C@H](COCc2ccc3ccccc3c2)[C@@H](O)[C@@H]1OCc1ccc(Cl)cc1 (single isomer, unassigned) [Compound 365]
- MC4 Inhibition at 4.0 Micromolar (MC4; Example Library 10): + (Indicates inhibition greater than . . . 50%)

SMILES: NCCCC(=O)NC1C(OCc2ccccc2)OC(COCc2ccc(Cl)cc2)C(O)C1OCc1ccccc1 (stereo not drawn) [Compound 412]
- MC4 Inhibition at 4.0 Micromolar (MC4; Example Library 11): + (Indicates inhibition greater than . . . 50%)

SMILES: NCCC(=O)NC1C(OCc2ccc3ccccc3c2)OC(COCc2ccc(Cl)cc2)C(O)C1OCc1ccc(Cl)cc1 (stereo not drawn) [Compound 415]
- MC4 Inhibition at 4.0 Micromolar (MC4; Example Library 11): + (Indicates inhibition greater than . . . 50%)

SMILES: CO[C@H]1[C@H](O)[C@@H](COCc2ccc(-c3ccccc3)cc2)OC(OCc2cccc(O)c2)[C@@H]1NC(=O)CNC(=N)N (stereo partly drawn) [Compound 112]
- MC4 inhibition at 10 micromolar (MC4; [2]): + (Indicates inhibition greater than . . . 50%)

SMILES: NCC(=O)N[C@H]1C(OCc2ccc3ccccc3c2)O[C@H](COCc2ccc3ccccc3c2)[C@@H](O)[C@@H]1OCc1ccc(Cl)cc1 (stereo partly drawn) [Compound 350]
- MC4 Inhibition at 4.0 Micromolar (MC4; Example Library 10): + (Indicates inhibition greater than . . . 50%)

SMILES: CSC1O[C@H](COCc2ccc(Cl)cc2)[C@@H](O)[C@H](OCc2cccc(N)c2)[C@H]1NC(=O)c1c[nH]c2ccccc12 (stereo partly drawn) [Compound 323]
- MC4 inhibition at 10 micromolar (MC4; [2]): + (Indicates inhibition greater than . . . 50%)

SMILES: N=C(N)NCC(=O)N[C@H]1C(OCc2ccc(-c3ccccc3)cc2)O[C@H](COCc2ccc3ccccc3c2)[C@@H](O)[C@H]1OCc1ccc(Cl)cc1 (stereo partly drawn) [Compound 463]
- MC4 Inhibition at 4.0 Micromolar (MC4; Example Library 13): + (Indicates inhibition greater than . . . 50%)

SMILES: CO[C@H]1[C@H](O)[C@@H](COCc2cccc(O)c2)OC(OCc2ccc(-c3ccccc3)cc2)[C@@H]1NC(=O)CNC(=N)N (stereo partly drawn) [Compound 108]
- MC4 inhibition at 10 micromolar (MC4; [2]): + (Indicates inhibition greater than . . . 50%)

SMILES: COC[C@H]1OC(OCCc2ccccc2)[C@H](NC(=O)CNC(=N)N)[C@@H](OCc2ccc(-c3ccccc3)cc2)[C@@H]1O (stereo partly drawn) [Compound 19]
- MC4 inhibition at 10 micromolar (MC4; [2]): + (Indicates inhibition greater than . . . 50%)

SMILES: CO[C@H]1[C@H](O)[C@@H](COCc2ccc(Cl)cc2)OC(OCc2ccc(Cl)cc2)[C@@H]1NC(=O)CNC(=N)N (stereo partly drawn) [Compound 92]
- MC4 inhibition at 10 micromolar (MC4; [2]): + (Indicates inhibition greater than . . . 50%)

SMILES: N=C(N)NCCC(=O)N[C@H]1C(OCc2ccc(-c3ccccc3)cc2)O[C@H](COCc2ccc3ccccc3c2)[C@@H](O)[C@H]1OCc1ccc(Cl)cc1 (stereo partly drawn) [Compound 470]
- MC4 Inhibition at 4.0 Micromolar (MC4; Example Library 13): + (Indicates inhibition greater than . . . 50%)

SMILES: COC1C(O)C(COCc2ccc(Cl)cc2)OC(OCc2ccc(-c3ccccc3)cc2)C1NC(=O)CCCN (stereo not drawn) [Compound 65]
- MC4 inhibition at 10 micromolar (MC4; [2]): + (Indicates inhibition greater than . . . 50%)

SMILES: N=C(N)NCCC(=O)NC1C(OCc2ccc(Cl)cc2)OC(COCc2ccc(Cl)cc2)C(O)C1OCc1ccc2ccccc2c1 (stereo not drawn) [Compound 493]
- MC4 Inhibition at 4.0 Micromolar (MC4; Example Library 13): + (Indicates inhibition greater than . . . 50%)

SMILES: COCC1OC(OCCc2ccccc2)C(NC(=O)CNC(=N)N)C(OCc2ccccc2)C1O (stereo not drawn) [Compound 261]
- MC4 inhibition at 10 micromolar (MC4; [1]): + (Indicates inhibition greater than . . . 50%)

SMILES: N=C(N)NCC(=O)N[C@H]1C(OCc2ccc(-c3ccccc3)cc2)O[C@H](COCc2ccc(Cl)cc2)[C@@H](O)[C@H]1OCc1ccc(-c2ccccc2)cc1 (stereo partly drawn) [Compound 469]
- MC4 Inhibition at 4.0 Micromolar (MC4; Example Library 13): + (Indicates inhibition greater than . . . 50%)

SMILES: NCCC(=O)N[C@H]1C(OCc2ccc3ccccc3c2)O[C@H](COCc2ccc(Cl)cc2)[C@@H](O)[C@@H]1OCc1ccc(Cl)cc1 (stereo partly drawn) [Compound 354]
- MC4 Inhibition at 4.0 Micromolar (MC4; Example Library 10): + (Indicates inhibition greater than . . . 50%)

SMILES: CO[C@H]1[C@H](O)[C@@H](COCc2ccc(Cl)cc2)OC(OCc2ccc(Cl)cc2)[C@@H]1NC(=O)CCNC(=N)N (stereo partly drawn) [Compound 93]
- MC4 inhibition at 10 micromolar (MC4; [2]): + (Indicates inhibition greater than . . . 50%)

SMILES: NCCCC(=O)NC1C(OCc2ccc3ccccc3c2)OC(COCc2ccccc2)C(O)C1OCc1ccc(Cl)cc1 (stereo not drawn) [Compound 423]
- MC4 Inhibition at 4.0 Micromolar (MC4; Example Library 11): + (Indicates inhibition greater than . . . 50%)

SMILES: N=C(N)NCCC(=O)N[C@H]1C(OCc2ccc(-c3ccccc3)cc2)O[C@H](COCc2ccccc2)[C@@H](O)[C@H]1OCc1ccc(Cl)cc1 (stereo partly drawn) [Compound 471]
- MC4 Inhibition at 4.0 Micromolar (MC4; Example Library 13): + (Indicates inhibition greater than . . . 50%)

SMILES: COC1C(O)C(COCc2ccc(Cl)cc2)OC(OCc2ccc(-c3ccccc3)cc2)C1NC(=O)CCCNC(=N)N (stereo not drawn) [Compound 66]
- MC4 inhibition at 10 micromolar (MC4; [2]): + (Indicates inhibition greater than . . . 50%)

SMILES: NCC(=O)N[C@H]1C(OCc2ccc3ccccc3c2)O[C@H](COCc2ccc3ccccc3c2)[C@@H](O)[C@@H]1OCc1ccc(Cl)cc1 (stereo partly drawn) [Compound 351]
- MC4 Inhibition at 4.0 Micromolar (MC4; Example Library 10): + (Indicates inhibition greater than . . . 50%)

SMILES: N=C(N)NCCC(=O)N[C@H]1C(OCc2ccccc2)O[C@H](COCc2ccccc2)[C@@H](O)[C@@H]1OCc1ccc2ccccc2c1 (stereo partly drawn) [Compound 453]
- MC4 Inhibition at 4.0 Micromolar (MC4; Example Library 12): + (Indicates inhibition greater than . . . 50%)
